The source of these data is PubChem BioAssay (NCI).

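Five concentrations, 48 hours, 96-well plates. At the TGI there is no net growth.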

Experiment in all cases: NCI-60 cell line screen, 48 h
In experiment [1] the test system is T-47D breast.
In experiment [2] the test system is U251 CNS.
Experiment [3] deals with K-562 leukemia.
Experiment [4] concerns MDA-MB-231 breast.
Experiment [5] relates to HOP-92 NSCLC.
The test system of experiment [6] is MALME-3M melanoma.
The subject of experiment [7] is IGROV1 ovarian.
The subject of experiment [8] is NCI-H226 lung.
Experiment [9] concerns UACC-257 melanoma.
Experiment [10] concerns LOX IMVI melanoma.

Consider `Cc1ccc([N+](=O)[O-])cc1N=NC(=O)NNc1cc([N+](=O)[O-])ccc1C`, for which the TGI in experiment [1] was more than 100 µM; in experiment [2], 97.6 µM; in [3], more than 100 µM; in experiment [4], 47.8 µM; in experiment [5] it was more than 100 µM; in experiment [6], more than 100 µM.
`CC1=NN(C(=O)CC(=O)Nc2ccccc2F)C(=O)C1N=Nc1ccccc1[N+](=O)[O-]` (stereo not drawn): the TGI in experiment [2], in experiment [7], in experiment [3], in experiment [8], in experiment [6] and in [9] was more than 100 µM each time.
`C(=Nc1ccc(-c2nc3ccccc3o2)cc1)c1ccco1`: the TGI in experiment [1], in experiment [7], in experiment [10], in [5], in experiment [6] and in experiment [9] was more than 100 µM in each case.
For `Nc1nc(N)c(N=O)c(Nc2ccc(Br)cc2)n1`, the TGI was 59 µM in experiment [2]; 39.4 µM in experiment [7]; more than 100 µM in experiment [3]; 66.5 µM in experiment [10]; 92.7 µM in experiment [8]; more than 100 µM in experiment [5]. The values for the TGI in experiment [6] and in experiment [9] were 44.6 µM and 77 µM, respectively.
Turning to `O=C(CNc1c(Cl)cccc1Cl)NC1C=Cc2ccc(S(=O)(=O)Nc3c(Cl)cccc3Cl)cc2C1=O` (stereo not drawn), the TGI in experiment [2], in experiment [7], in [3], in experiment [10], in [8] and in experiment [4] was more than 100 µM throughout. Moreover, the TGI in [5], in experiment [6] and in experiment [9] was more than 100 µM throughout.
Turning to `C=Cc1ccc(C)[n+](C[Si](C)(C)O[Si](C)(C)C[n+]2cc(C=C)ccc2C)c1`, the TGI in experiment [2], in experiment [7], in experiment [3], in [10], in experiment [8] and in [5] was more than 100 µM in each case. Besides, the TGI in experiment [6] and in experiment [9] was more than 100 µM in each case.
As to `CC(=O)OCC1OC(n2cc(I)c(=O)[nH]c2=O)C(OC(C)=O)C(OC(C)=O)C1OC(C)=O` (stereo not drawn), the TGI in experiment [2], in [7], in experiment [3], in experiment [10], in [8] and in experiment [5] was more than 100 µM in each case. The TGI in [6] and in experiment [9] was more than 100 µM throughout.
As for `O=C1Sc2ccccc2C(=O)N2CSCC12` (stereo not drawn), the TGI in experiment [2], in [7], in experiment [3], in experiment [10], in experiment [8] and in [5] was more than 100 µM in each case. The TGI in [6] and in experiment [9] was more than 100 µM in each case.
As to `N#CC1=C(c2ccccc2)NNC(c2ccc(Cl)cc2)CC1=O` (stereo not drawn), the TGI in experiment [2] is more than 100 µM; in experiment [10] it was more than 100 µM; in experiment [8] it was 8.26 µM; in experiment [5], more than 100 µM; in [6], more than 100 µM; in [9] it was more than 100 µM.
Turning to `CC(C)=CCC/C(C)=C/COC(C)(C)C1=CCC(C)CC1` (stereo not drawn) (tested in a mixture with another compound), the TGI in [2], in [7], in experiment [5], in experiment [6] and in experiment [9] was more than 100 µM in each case.
With `CCC1=CC2CN3Cn4c(c(COCc5c6n(c7ccccc57)CN5CC7C=C(CC)C5C6(C(=O)OC)C7)c5ccccc54)C(C(=O)OC)(C2)C13`, the TGI in [2], in experiment [7], in [3], in experiment [10], in experiment [8] and in [6] was more than 100 µM throughout. For the same compound, the TGI in experiment [9] was more than 100 µM.
On to `CC(O)CCCOC(c1ccccc1)(c1ccccc1)c1ccccc1` (stereo not drawn), for which the TGI in [2] was 30.3 µM; in experiment [7] it was 29.9 µM; in [3], more than 100 µM; in [10], 30.4 µM; in experiment [8], 30.2 µM; in experiment [4], 33.3 µM. Further, the TGI in experiment [5] is 25.5 µM; in experiment [6], 27.8 µM; in experiment [9], 30.4 µM.
Regarding `O=C(Cc1nc2c3c(ccc2[nH]c1=O)C(=O)c1ccccc1C3=O)C(=O)Nc1ccccc1[N+](=O)[O-]`, the TGI is 32 µM in [2]; 65.4 µM in [7]; 37 µM in experiment [3]; 44.8 µM in experiment [10]; 40.5 µM in [8]; 38.5 µM in experiment [5]. The TGI worked out at 36.6 µM in experiment [6] and 37 µM in [9].
Take `O=c1[nH]cnc(NC2C=C(CO)C(O)C2O)c1[N+](=O)[O-]` (stereo not drawn): the TGI was more than 100 µM in experiment [2]; more than 100 µM in experiment [7]; more than 100 µM in experiment [3]; more than 59.6 µM in experiment [10]; more than 100 µM in experiment [8]; more than 100 µM in experiment [5]. For the same compound, the TGI in experiment [6] and in experiment [9] was more than 100 µM each time.
In the case of `CCOP(=O)(OCC)C(C(=O)OC)C(=O)C(=O)Nc1ccc(Cl)cc1Cl` (stereo not drawn), the TGI in experiment [2], in [7], in experiment [3], in experiment [10], in [8] and in experiment [5] was more than 100 µM throughout. Besides, the TGI in experiment [6] and in [9] was more than 100 µM each time.
`CC(C)(C)OC(=O)NCCC(N)=S`: the TGI in experiment [1], in experiment [2], in experiment [7], in experiment [3], in experiment [8] and in experiment [5] was more than 100 µM in each case. The TGI in experiment [6] and in [9] was more than 100 µM in each case.
